Measured values published in the OligoGym collection.
Values joined by “and” are separate entries in the source; they are usually repeats but may differ in a detail not shown here. Equal values may be shown once. After the bases stand the sugars from the 5' end (letter, count) and the backbone: PS all phosphorothioate, else s phosphorothioate and o phosphodiester by linkage. Methylation of C is not given here. e = 2'-O-(2-methoxyethyl) (MOE); k = constrained ethyl (cEt); d = 2'-deoxy (DNA)

Target: IRF4
Details: ASO

Sequence | target mRNA inhibition (MM.1R, 1 µM) | target mRNA inhibition (SK-MEL-28, 4 µM) | other results
TGGATTGATGTGATAG (sugars k3 d10 k3, PS) | 48% | – | –
GGCAATGGAGTCTCGC (sugars k3 d10 k3, PS) | – | 50% | –
AAGCCTAGAGGTGCCT (sugars k3 d10 k3, PS) | 29% | – | –
GTGTGATTAATTCTCC (sugars k3 d10 k3, PS) | 64% and 44% | – | target mRNA inhibition (MM.1R, 0.0625 µM): -15%; target mRNA inhibition (MM.1R, 0.25 µM): 8%; target mRNA inhibition (MM.1R, 4 µM): 87%
ACTGCTTGAGGTTTTC (sugars e1 k2 d9 k2 e2, PS) | 46% | – | –
AGATATCCTGCAACTG (sugars k3 d10 k3, PS) | – | -9% | –
GCAGCTTCTCAATGTT (sugars k3 d10 k3, PS) | – | 43% | –
GAATAGGACCCCTATC (sugars k3 d10 k3, PS) | -3% | – | –
GAAGCATTTTATCATC (sugars k3 d10 k3, PS) | 4% | – | –
GGCCGGAGACCTTGAA (sugars k3 d10 k3, PS) | – | 3% | –
CAAACCTTAAGCTATT (sugars k3 d10 k3, PS) | – | – | target mRNA inhibition (MM.1R, 0.0625 µM): -13%; target mRNA inhibition (MM.1R, 0.25 µM): -5%; target mRNA inhibition (MM.1R, 4 µM): 6%
AGGCGCGGACGCACGG (sugars k3 d10 k3, PS) | – | 31% | –
CAACAGAGCTGAGAGT (sugars k3 d10 k3, PS) | – | 20% | –
GCTCGGAGCGACCCAA (sugars k3 d10 k3, PS) | – | 8% | –
GTTCAAGTATTAAGAT (sugars k3 d10 k3, PS) | – | 29% | –
AGCTAGCGCGCACTAA (sugars k3 d10 k3, PS) | -8% | – | –
ACCATTACTTAGACAT (sugars k3 d10 k3, PS) | – | 65% | –
AGCAAAGCAAGTGTCT (sugars k3 d10 k3, PS) | – | 58% | –
CTGTTACCGATGCTTC (sugars kkdddddddddkekek, PS) | 52% and 44% | – | –
GTACAGGACAGGTAAA (sugars k3 d10 k3, PS) | – | 25% | –
CAGTGATGTCAGGTTT (sugars k2 d9 e3 k2, PS) | 56% | – | target mRNA inhibition (MM.1R, 0.074 µM): 0%; target mRNA inhibition (MM.1R, 0.222 µM): 12%; target mRNA inhibition (MM.1R, 0.666 µM): 34%; target mRNA inhibition (MM.1R, 2 µM): 57%
GTAAGAGGGCAGTCAA (sugars k3 d10 k3, PS) | – | 44% | –
TGGCATGCGAATGTGC (sugars k3 d10 k3, PS) | -21% | – | –
AAGCTTGATAAAGGCT (sugars k3 d9 k3 e1, PS) | 5% | – | –
GAAGAGATCAGCTGCC (sugars k3 d10 k3, PS) | – | 42% | –
CTGCATTTGCAAATAA (sugars k3 d10 k3, PS) | – | -21% | –

Sequence | target mRNA inhibition (MM.1R, 1 µM) | target mRNA inhibition (SK-MEL-28, 4 µM) | other results
CATCATGTAGTTGTGA (sugars k3 d10 k3, PS) | – | 41% | –
AGACAGGTCTCTACCT (sugars k3 d10 k3, PS) | -12% | – | –
CCTCATTCACAACTAG (sugars k3 d10 k3, PS) | 5% | – | –
TGTAACTCTGAGTAGA (sugars k3 d10 k3, PS) | – | 43% | –
TCTATAGTGTTCCAGG (sugars e1 k2 d9 k2 e2, PS) | 58% | – | target mRNA inhibition (MM.1R, 0.074 µM): 22%; target mRNA inhibition (MM.1R, 0.222 µM): 33%; target mRNA inhibition (MM.1R, 0.666 µM): 52%; target mRNA inhibition (MM.1R, 2 µM): 74%
ACCCAGTGGTAGGTAG (sugars k3 d10 k3, PS) | – | 30% | –
CGCTCAAAGACCAGCT (sugars k3 d10 k3, PS) | – | 56% | –
CAGCATTGGACCCACG (sugars k3 d10 k3, PS) | 4% | – | –
TGCATCTATAAGATGT (sugars k4 d8 k4, PS) | – | 10% | –
TTTGCTTTGGGCACCA (sugars k3 d10 k3, PS) | 24% | – | –
AGGATAATATACCCCA (sugars k3 d10 k3, PS) | – | 74% | –
GAAATGGAGCATCCGC (sugars k3 d10 k3, PS) | – | 32% | –
CATTACTTAGACATTA (sugars k3 d10 k3, PS) | – | 19% | –
TCTTTTTAGTTCATAC (sugars k3 d10 k3, PS) | – | 26% | –
ATCTATAAGATGTATA (sugars k4 d8 k4, PS) | – | 36% | –
AAGTGTCTAAAGTCCC (sugars k3 d10 k3, PS) | 50% and 41% | – | –
TCCAACCCTAGATAAC (sugars k3 d10 k3, PS) | -5% | – | –
TAGTCGCGCAAGTCTA (sugars k3 d10 k3, PS) | – | -8% | –
TGGATCTGAATTGTTA (sugars k3 d10 k3, PS) | – | 55% | –
GTAGTATGAGAAACGG (sugars kkkddddddddkekek, PS) | 43% | – | –
GCTAGAACATGATGAG (sugars k3 d10 k3, PS) | – | 14% | –
AGCTTGATAAAGGCTG (sugars k2 d9 e3 k2, PS) | 3% | – | –
ATCCTGTAGTATGAGA (sugars k3 d10 k3, PS) | – | 45% | –
ATGTGTATTACTCTTA (sugars kkddddddddddkeke, PS) | 47% and 48% | – | –
GTGATGTCAGGTTTTC (sugars kdddddddddkekeke, PS) | 30% | – | –
TATCAAGACAAGGAAT (sugars k3 d10 k3, PS) | – | 7% | –

Sequence | target mRNA inhibition (MM.1R, 1 µM) | target mRNA inhibition (SK-MEL-28, 4 µM) | other results
GAGGACCACGCCCCTC (sugars k3 d10 k3, PS) | – | -3% | –
AAGTGTCTAAAGTCCC (sugars kdddddddddkekeke, PS) | 4% and 5% | – | –
GTTATCTATGGAAACC (sugars k3 d10 k3, PS) | – | 42% | –
ATGATATTAGAGACTG (sugars k3 d10 k3, PS) | – | 74% | –
GGTAAAGGAGTGCAGG (sugars k3 d10 k3, PS) | – | 46% | –
GTCCTTCAGATTTACA (sugars k3 d10 k3, PS) | -17% | – | –
GTGTCTAAAGTCCCAT (sugars kkddddddddddkeke, PS) | 9% and 6% | – | –
AGAGTGGTACACCTCT (sugars k3 d10 k3, PS) | – | 22% | –
AGGTTGCCGAGATATA (sugars k3 d10 k3, PS) | 54% and 67% | – | –
TAACAGATAACGAGGT (sugars k3 d10 k3, PS) | 12% | – | –
GGCGCGCTCCCTTCCC (sugars k3 d10 k3, PS) | – | 10% | –
CTAATCTACAACAAAT (sugars k3 d10 k3, PS) | – | 23% | –
GTGTGCTTGCCAAGCC (sugars kkdddddddddekeke, PS) | 17% and 19% | – | –
GAAAAGAGCCGCCACA (sugars k3 d10 k3, PS) | – | 7% | –
CCAATACATATCCATG (sugars k3 d10 k3, PS) | – | 60% | –
TTATGTTAGCCAATTC (sugars kddddddddddkekek, PS) | 2% and 6% | – | –
AGGAATGGCGGATAGA (sugars k3 d10 k3, PS) | – | 38% | –
ACGCACCCGCAGCCCA (sugars k3 d10 k3, PS) | -10% | – | –
CCTATGCTGAACCCCA (sugars k3 d10 k3, PS) | -12% | – | –
AGCTGAATGCTCTCCA (sugars k3 d10 k3, PS) | – | 78% | –
AGTTGTAAATGAGTCG (sugars kkdddddddddkdkdk, PS) | 39% | – | –
ATTCCAACAGGCGGAC (sugars k3 d10 k3, PS) | 2% | – | –
CGGTTAGCTCATCCCG (sugars k3 d10 k3, PS) | 5% | – | –
TTTATGTTAGCCAATT (sugars kkdddddddddkdkdk, PS) | 11% and 34% | – | –
CTTGCCGCTGTCGATC (sugars k4 d8 k4, PS) | – | 42% | –
AATTTTCACAGTGATC (sugars k3 d10 k3, PS) | – | 34% | –

Sequence | target mRNA inhibition (MM.1R, 1 µM) | target mRNA inhibition (SK-MEL-28, 4 µM) | other results
GCAAGTGGAGGTCTTT (sugars k3 d10 k3, PS) | – | 74% and 79% | –
CAAGTAATTTTAAGGC (sugars k3 d10 k3, PS) | – | 41% | –
AACGACAAGTGGCGCA (sugars k3 d10 k3, PS) | 12% | – | –
AGCCACGAGGCACCGC (sugars k3 d10 k3, PS) | – | 12% | –
TAGTATGAGAAACGGC (sugars kkkdddddddddkeke, PS) | 62% | – | target mRNA inhibition (MM.1R, 0.074 µM): 8%; target mRNA inhibition (MM.1R, 0.222 µM): 29%; target mRNA inhibition (MM.1R, 0.666 µM): 50%; target mRNA inhibition (MM.1R, 2 µM): 71%
ACCCAATAGTCTAGCT (sugars k3 d10 k3, PS) | – | 25% | –
TTAATTATGCAGAAGC (sugars k3 d10 k3, PS) | – | 13% | –
TTCTAGCTAACTTACA (sugars k3 d10 k3, PS) | -18% | – | –
TTCAGCAGAAAGTGGG (sugars k3 d10 k3, PS) | – | 48% | –
GCATGACAGGGCGAGG (sugars k3 d10 k3, PS) | – | 43% | –
GTGATGTCAGGTTTTC (sugars kkkddddddddkekek, PS) | 57% | – | target mRNA inhibition (MM.1R, 0.074 µM): 14%; target mRNA inhibition (MM.1R, 0.222 µM): 35%; target mRNA inhibition (MM.1R, 0.666 µM): 54%; target mRNA inhibition (MM.1R, 2 µM): 77%
AGTGACTTGCATCCAT (sugars k2 d9 e3 k2, PS) | 52% | – | –
TCCACTTCTGAATTCC (sugars k3 d10 k3, PS) | – | 19% | –
GGCCATTCGAGGTGAT (sugars k3 d10 k3, PS) | 1% | – | –
CCGGACCCCGGAGCAG (sugars k3 d10 k3, PS) | – | -24% | –
CCCTTATTAGACTGAC (sugars k3 d10 k3, PS) | – | 67% | –
GATTATATACTGGTTG (sugars k2 d9 e3 k2, PS) | 42% | – | –
GACTTAACCCACATCA (sugars k3 d10 k3, PS) | – | -166% | –
CAAGCAGTGATGTCAG (sugars kkdddddddddkdkdk, PS) | 46% and 49% | – | –
GTCTCTACCTACTCCA (sugars k3 d10 k3, PS) | – | 41% | –
GGGTACCCTGCGCTGC (sugars k3 d10 k3, PS) | – | 44% | –
TACATCACTGCAGTTC (sugars k3 d10 k3, PS) | – | 68% | –
AAGCTTGATAAAGGCT (sugars kkdddddddddekeke, PS) | 38% | – | –
CCAAATGTGGAGCTCC (sugars k3 d10 k3, PS) | – | 23% | –
